Experimental data reported in patent US20250213555A1, “SUBSTITUTED TETRAHYDROFURAN ANALOGS AS MODULATORS OF SODIUM CHANNELS” (VERTEX PHARMACEUTICALS INCORPORATED, priority 2021, published 2025).

Each compound was assayed against human Nav 1.8 (Homo sapiens, UniProt Q9Y5Y9) (assay: E-VIPR assay detecting and measuring Nav inhibition properties). Details: HEK cells expressing a truncated form of human Nav 1.8; compound numbers without "*" (not marked as run in the presence of human serum); read-out: measured IC50 value in the E-VIPR Assay.
Format: cell-based
Source text: E-VIPR Assay Detecting and Measuring Nav Inhibition Properties
Sodium ion channels are voltage-dependent proteins that can be activated by inducing membrane voltage changes by applying electric fields. The electrical stimulation instrument and methods of use, referred to as E-VIPR, are described in International Publication No. WO 2002/008748 A3 and C.-J. Huang et al. Characterization of voltage-gated sodium channel blockers by electrical stimulation and fluorescence detection of membrane potential, 24 Nature Biotech. 439-46 (2006), both of which are incorporated by reference in their entirety. The instrument comprises a microtiter plate handler, an optical system for exciting the coumarin dye while simultaneously recording the coumarin and oxonol emissions, a waveform generator, a current- or voltage-controlled amplifier, and parallel electrode pairs that are inserted into assay plate wells. Under integrated computer control, this instrument passes user-programmed electrical stimulus protocols to cells within the wells of the microtiter plate.
16-20 hours prior to running the assay on E-VIPR, HEK cells expressing a truncated form of human Nav 1.8 with full channel activity were seeded into microtiter 384-well plates, pre-coated with matrigel, at a density of 25,000 cells per well. 2.5-5% KIR2.1 Bacmam virus was added to the final cell suspension before seeding into cell plates. HEK cells were grown in Dulbecco's Modified Eagle's Medium (DMEM) supplemented with 10% FBS (Fetal Bovine Serum, qualified; Sigma #F4135), 1% NEAA (Non-Essential Amino Acids, Gibco #11140), 1% HEPES (Gibco #15630), 1% Pen-Strep (Penicillin-Streptomycin; Gibco #15140) and 5 μg/ml Blasticidin (Gibco #R^210-01). Cells were expanded in vented cap cell culture flasks, with 90-95% humidity and 5% CO2.
100 mg/mL Pluronic F-127 (Sigma #P2443), in dry DMSO
Compound Plates: Corning 384-well Polypropylene Round Bottom #3656
Cell Plates: 384-well tissue culture treated plates (Greiner #781091-2B)
2.5-5% KIR 2.1 Bacmam virus (produced in-house), prepared as described in Section 3.3 of J. A. Fornwald et al., Gene Expression in Mammalian Cells Using BacMam, a Modified Baculovirus System, 1350 Methods in Molecular Biology 95-116 (2016), the entire contents of which are incorporated by reference. The concentration used can be dependent on viral titer of each batch.
5 mM DiSBAC6(3), a voltage sensitive oxonol acceptor (CAS number 169211-44-3; 5-[3-(1,3-dihexylhexahydro-4,6-dioxo-2-thioxo-5-pyrimidinyl)-2-propen-1-ylidene]-1,3-dihexyldihydro-2-thioxo-4,6 (1H,5H)-pyrimidinedione), in dry DMSO. The preparation of DiSBAC6(3) is analogous to that of DiSBAC4(3) as described in Voltage Sensing by Fluorescence Resonance Energy Transfer in Single Cells, Gonzalez, J. E. and Tsien, R. Y. (1995) Biophys. J. 69, 1272-1280.
5 mM CC2-DMPE, a commercially available membrane-bound coumarin phospholipid FRET donor (ThermoFisher Scientific catalog number K1017, CAS number 393782-57-5; tetradecanoic acid, 1,1′-[(1R)-1-[8-(6-chloro-7-hydroxy-2-oxo-2H-1-benzopyran-3-yl)-3-hydroxy-3-oxido-8-oxo-2,4-dioxa-7-aza-3-phosphaoct-1-yl]-1,2-ethanediyl] ester) was prepared in dry DMSO. See also, Improved indicators of cell membrane potential that use fluorescence resonance energy transfer, Gonzalez, J. E. and Tsien, R. Y. (1997) Chem. Biol. 4, 269-277.
Voltage Assay Background Suppression Compound (VABSC-1) is prepared in H2O (89-363 mM, range used to maintain solubility)
Human Serum (HS, Millipore #S1P1-01KL, or Sigma SLBR5469V and SLBR5470V as a 50%/50% mixture, for 25% assay final concentration)
• Sodium Chloride 160 mM (9.35 g/L), Potassium Chloride, 4.5 mM (0.335 g/L), Glucose 10 mM (1.8 g/L), Magnesium Chloride (Anhydrous) 1 mM (0.095 g/L), Calcium Chloride 2 mM (0.222 g/L), HEPES 10 mM (2.38 g/L) in water. […]

Chain of human Nav 1.8 (Q9Y5Y9 126-399 limits assumed): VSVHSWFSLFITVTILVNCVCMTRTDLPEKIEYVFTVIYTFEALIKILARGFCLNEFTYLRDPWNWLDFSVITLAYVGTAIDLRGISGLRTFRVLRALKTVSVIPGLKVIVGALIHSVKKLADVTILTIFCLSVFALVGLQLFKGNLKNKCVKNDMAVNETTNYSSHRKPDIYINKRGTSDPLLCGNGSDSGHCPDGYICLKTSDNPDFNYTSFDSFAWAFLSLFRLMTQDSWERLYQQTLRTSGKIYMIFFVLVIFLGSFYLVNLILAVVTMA
Chain of human Nav 1.8 (Q9Y5Y9 660-890 limits assumed): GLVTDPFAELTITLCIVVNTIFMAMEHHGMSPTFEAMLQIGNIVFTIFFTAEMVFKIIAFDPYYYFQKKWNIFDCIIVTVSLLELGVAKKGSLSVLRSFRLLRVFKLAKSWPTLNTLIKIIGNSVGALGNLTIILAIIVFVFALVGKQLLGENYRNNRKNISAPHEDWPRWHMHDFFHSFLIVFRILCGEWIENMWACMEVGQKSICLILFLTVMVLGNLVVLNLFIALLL
Chain of human Nav 1.8 (Q9Y5Y9 1148-1722 limits assumed): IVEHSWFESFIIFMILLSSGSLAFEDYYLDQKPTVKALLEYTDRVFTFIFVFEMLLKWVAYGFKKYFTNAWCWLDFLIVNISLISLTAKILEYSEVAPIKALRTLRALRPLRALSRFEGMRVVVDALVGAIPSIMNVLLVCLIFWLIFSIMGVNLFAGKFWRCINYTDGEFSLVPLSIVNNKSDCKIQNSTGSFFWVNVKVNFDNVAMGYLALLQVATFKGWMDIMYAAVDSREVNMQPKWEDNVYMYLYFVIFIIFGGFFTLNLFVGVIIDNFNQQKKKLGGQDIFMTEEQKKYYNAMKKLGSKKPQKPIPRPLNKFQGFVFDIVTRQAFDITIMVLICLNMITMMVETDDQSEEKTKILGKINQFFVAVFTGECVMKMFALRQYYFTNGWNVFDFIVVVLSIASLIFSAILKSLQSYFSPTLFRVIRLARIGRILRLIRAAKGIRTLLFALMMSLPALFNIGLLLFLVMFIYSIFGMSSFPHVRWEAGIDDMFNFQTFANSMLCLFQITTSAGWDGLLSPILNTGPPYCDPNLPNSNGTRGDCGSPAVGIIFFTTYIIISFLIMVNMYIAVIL

IC50	SMILES
100 to 1000 nM	COc1c([C@H]2[C@H](C(=O)Nc3nccc(C(=O)N4CCN(C)CC4)n3)O[C@@](C)(C(F)(F)F)[C@H]2C)ccc(F)c1F [Compound 13, (2R,3S,4S,5R)-3-(3,4-difluoro-2-methoxyphenyl)-4,5-dimethyl-N-(4-(4-methylpiperazine-1-carbonyl)pyrimidin-2-yl)-5-(trifluoromethyl)tetrahydrofuran-2-carboxamide]
< 10 nM	COC1CN(CCOc2c([C@H]3[C@H](C(=O)Nc4ccnc(C(N)=O)c4)O[C@@](C)(C(F)(F)F)[C@H]3C)ccc(F)c2F)C1 [Compound 52, 4-((2R,3S,4S,5R)-3-(3,4-difluoro-2-(2-(3-methoxyazetidin-1-yl)ethoxy)phenyl)-4,5-dimethyl-5-(trifluoromethyl)tetrahydrofuran-2-carboxamido)picolinamide]
< 10 nM	C[C@H]1[C@@H](c2ccc(F)c(F)c2OCCCC#N)[C@H](C(=O)Nc2ccnc(C(N)=O)c2)O[C@@]1(C)C(F)(F)F [Compound 76, 4-((2R,3S,4S,5R)-3-(2-(3-cyanopropoxy)-3,4-difluorophenyl)-4,5-dimethyl-5-(trifluoromethyl)tetrahydrofuran-2-carboxamido)picolinamide]
10 to 100 nM	C[C@H]1[C@@H](c2ccc(F)c(F)c2OCCN2CC[C@H](F)C2)[C@H](C(=O)Nc2ccnc(C(N)=O)c2)O[C@@]1(C)C(F)(F)F [Compound 49, 4-((2R,3S,4S,5R)-3-(3,4-difluoro-2-(2-((S)-3-fluoropyrrolidin-1-yl)ethoxy)phenyl)-4,5-dimethyl-5-(trifluoromethyl)tetrahydrofuran-2-carboxamido)picolinamide]
< 10 nM	COc1c([C@H]2[C@H](C(=O)Nc3ccnc(C(=O)N4C[C@H](N)[C@@H](F)C4)c3)O[C@@](C)(C(F)(F)F)[C@H]2C)ccc(F)c1F [Compound 260, (2R,3S,4S,5R)-N-(2-((3S,4S)-3-amino-4-fluoropyrrolidine-1-carbonyl)pyridin-4-yl)-3-(3,4-difluoro-2-methoxyphenyl)-4,5-dimethyl-5-(trifluoromethyl)tetrahydrofuran-2-carboxamide]
10 to 100 nM	C[C@H]1[C@@H](c2ccc(F)c(F)c2OCCN2CCCOCC2)[C@H](C(=O)Nc2ccnc(C(N)=O)c2)O[C@@]1(C)C(F)(F)F [Compound 108, 4-((2R,3S,4S,5R)-3-(2-(2-(1,4-oxazepan-4-yl)ethoxy)-3,4-difluorophenyl)-4,5-dimethyl-5-(trifluoromethyl)tetrahydrofuran-2-carboxamido)picolinamide]
100 to 1000 nM	C[C@H]1[C@@H](c2ccc(F)c(F)c2OC2CS(=O)(=O)C2)[C@H](C(=O)Nc2ccnc(C(N)=O)c2)O[C@@]1(C)C(F)(F)F [Compound 171, 4-((2R,3S,4S,5R)-3-(2-((1,1-dioxidothietan-3-yl)oxy)-3,4-difluorophenyl)-4,5-dimethyl-5-(trifluoromethyl)tetrahydrofuran-2-carboxamido)picolinamide]
< 10 nM	COc1c([C@H]2[C@H](C(=O)Nc3ccnc(C(=O)NCCN(C)C)c3)O[C@@](C)(C(F)(F)F)[C@H]2C)ccc(F)c1F [Compound 271, 4-((2R,3S,4S,5R)-3-(3,4-difluoro-2-methoxyphenyl)-4,5-dimethyl-5-(trifluoromethyl)tetrahydrofuran-2-carboxamido)-N-(2-(dimethylamino)ethyl)picolinamide]
< 10 nM	COc1c([C@H]2[C@H](C(=O)Nc3ccnc(C(=O)N4C[C@@H](N)[C@@H](F)C4)c3)O[C@@](C)(C(F)(F)F)[C@H]2C)ccc(F)c1F [Compound 259, (2R,3S,4S,5R)-N-(2-((3R,4S)-3-amino-4-fluoropyrrolidine-1-carbonyl)pyridin-4-yl)-3-(3,4-difluoro-2-methoxyphenyl)-4,5-dimethyl-5-(trifluoromethyl)tetrahydrofuran-2-carboxamide]
10 to 100 nM	COc1c([C@H]2[C@H](C(=O)Nc3ccnc(C(=O)NC4CN(C)C4)c3)O[C@@](C)(C(F)(F)F)[C@H]2C)ccc(F)c1F [Compound 275, 4-((2R,3S,4S,5R)-3-(3,4-difluoro-2-methoxyphenyl)-4,5-dimethyl-5-(trifluoromethyl)tetrahydrofuran-2-carboxamido)-N-(1-methylazetidin-3-yl)picolinamide]
< 10 nM	C[C@H]1[C@@H](c2ccc(F)c(F)c2OCc2cc[nH]n2)[C@H](C(=O)Nc2ccnc(C(N)=O)c2)O[C@@]1(C)C(F)(F)F [Compound 83, 4-((2R,3S,4S,5R)-3-(2-((1H-pyrazol-3-yl)methoxy)-3,4-difluorophenyl)-4,5-dimethyl-5-(trifluoromethyl)tetrahydrofuran-2-carboxamido)picolinamide]
< 10 nM	COc1c([C@H]2[C@H](C(=O)Nc3ccnc(C(N)=O)c3)O[C@@](C)(C(F)(F)F)[C@H]2C)ccc(OCC2CC2)c1F (single isomer, unassigned) [Compound 144]
10 to 100 nM	COc1c([C@H]2[C@H](C(=O)Nc3ccnc(C(=O)N4C5CC4CN(C)C5)c3)O[C@@](C)(C(F)(F)F)[C@H]2C)ccc(F)c1F [Compound 276, (2R,3S,4S,5R)-3-(3,4-difluoro-2-methoxyphenyl)-4,5-dimethyl-N-(2-(3-methyl-3,6-diazabicyclo[3.1.1]heptane-6-carbonyl)pyridin-4-yl)-5-(trifluoromethyl)tetrahydrofuran-2-carboxamide]
< 10 nM	C[C@H]1[C@@H](c2ccc(F)c(F)c2OCCN=S(C)(C)=O)[C@H](C(=O)Nc2ccnc(C(N)=O)c2)O[C@@]1(C)C(F)(F)F [Compound 130, 4-((2R,3S,4S,5R)-3-(2-(2-((dimethyl(oxo)-26-sulfaneylidene)amino)ethoxy)-3,4-difluorophenyl)-4,5-dimethyl-5-(trifluoromethyl)tetrahydrofuran-2-carboxamido)picolinamide]
10 to 100 nM	C[C@H]1[C@@H](c2ccc(F)c(F)c2OCC2CN(C)C2)[C@H](C(=O)Nc2ccnc(C(N)=O)c2)O[C@@]1(C)C(F)(F)F [Compound 104, 4-((2R,3S,4S,5R)-3-(3,4-difluoro-2-((1-methylazetidin-3-yl)methoxy)phenyl)-4,5-dimethyl-5-(trifluoromethyl)tetrahydrofuran-2-carboxamido)picolinamide]
10 to 100 nM	COc1c([C@H]2[C@H](C(=O)Nc3ccnc(C(=O)NC4CNC4)c3)O[C@@](C)(C(F)(F)F)[C@H]2C)ccc(F)c1F [Compound 236, N-(azetidin-3-yl)-4-((2R,3S,4S,5R)-3-(3,4-difluoro-2-methoxyphenyl)-4,5-dimethyl-5-(trifluoromethyl)tetrahydrofuran-2-carboxamido)picolinamide]

SMILES	IC50
COc1c([C@H]2[C@H](C(=O)Nc3ccnc(C(=O)N4CC5COCC(C4)N5C)c3)O[C@@](C)(C(F)(F)F)[C@H]2C)ccc(F)c1F [Compound 284, (2R,3S,4S,5R)-3-(3,4-difluoro-2-methoxyphenyl)-4,5-dimethyl-N-(2-(9-methyl-3-oxa-7,9-diazabicyclo[3.3.1]nonane-7-carbonyl)pyridin-4-yl)-5-(trifluoromethyl)tetrahydrofuran-2-carboxamide]	< 10 nM
CC[C@H](CO)COc1c([C@H]2[C@H](C(=O)Nc3ccnc(C(N)=O)c3)O[C@@](C)(C(F)(F)F)[C@H]2C)ccc(F)c1F (single isomer, unassigned) [Compound 93, rel-4-((2R*,3S*,4S*,5R*)-3-(3,4-difluoro-2-(2-(hydroxymethyl)butoxy)phenyl)-4,5-dimethyl-5-(trifluoromethyl)tetrahydrofuran-2-carboxamido)picolinamide]	< 10 nM
